Data taken from article PMC9964244, “Effects of Dimerization, Dendrimerization, and Chirality in p-BthTX-I Peptide Analogs on the Antibacterial Activity and Enzymatic Inhibition of the SARS-CoV-2 PL^pro Protein” (Pharmaceutics, 2023).
Values after ≈ are worked out from the molar mass of the structure shown. Values joined by “and” are separate entries in the source; they are usually repeats but may differ in a detail not shown here. Equal values may be shown once. Read-outs that look alike come from different tables or passages of the source. Bridge positions count the residues as written; N and C are the ends. Square brackets hold non-standard residues; d marks the D form. Ends that are not written are not given here. Peptide text beside a SMILES is read from it. I, II: the chains in the order shown.

How the values were obtained:
S. aureus ATCC 25923 = assay: MIC/MBC, broth microdilution and subculture on CA-MH agar; type: cell-based, Staphylococcus aureus; parameters: key to Act (antibacterial activity): Bc, bactericidal; Bs, bacteriostatic; details: for MIC: broth microdilution; for MIC / MBC: triplicate, mode; for MBC: subculture on CA-MH agar, 37 °C, 24 h
Method: (§1) Bacterial isolates from the American Type Culture Collection (ATCC) were obtained from the Collection of Reference Bacteria on Health Surveillance, Oswaldo Cruz Foundation (FIOCRUZ) after phenotypic and molecular quality control and were registered at SISGEN under the number ADB556B. The minimum inhibitory concentration (MIC) was determined as previously described by Santos-Filho et al., 2021 [17], using the broth microdilution method. The MIC was the lowest concentration that inhibited microbial growth. […] MBC was defined as the lowest peptide concentration with no visible growth on the plate. […] The assay was performed in triplicate, and the values represent the mode of the obtained results.
(§2) Thus, to assess the relevance of the antimicrobial effect of p-Bth analogs, their Minimum Inhibitory Concentration (MIC) and Minimum Bactericidal Concentration (MBC) were analyzed against relevant bacteria. The evaluated strains were the Gram-positives: S. aureus ATCC 25923, S. epidermidis ATCC 35984, E. faecalis ATCC 29212, and E. faecium ATCC […] (Table 1); and the Gram-negatives: K. pneumoniae ATCC 700603, E. coli ATCC 25922, A. baumannii ATCC 19606, and P. aeruginosa ATCC 27853 (Table 2).

E. coli ATCC 25922 = assay: as above; type: cell-based; parameters: key to Act (antibacterial activity): Bc, bactericidal; Bs, bacteriostatic; details: for Act (antibacterial activity): MBC/MIC ratio >4 suggests bacteriostatic; for MIC: broth microdilution; for MIC / MBC: triplicate, mode; for MBC: subculture on CA-MH agar, 37 °C, 24 h
Method: as §1, §2

E. faecalis ATCC 29212 = assay: as above; type: cell-based; parameters: key to Act (antibacterial activity): Bc, bactericidal; Bs, bacteriostatic; details: for Act (antibacterial activity): MBC/MIC ratio >4 suggests bacteriostatic; for MIC: broth microdilution; for MIC / MBC: triplicate, mode; for MBC: subculture on CA-MH agar, 37 °C, 24 h
Method: as §1, §2

[1] = test system: S. epidermidis ATCC 35984; assay: as above; type: cell-based; parameters: key to Act (antibacterial activity): Bc, bactericidal; Bs, bacteriostatic; details: for Act (antibacterial activity): MBC/MIC ratio >4 suggests bacteriostatic; for MIC: broth microdilution; for MIC / MBC: triplicate, mode; for MBC: subculture on CA-MH agar, 37 °C, 24 h
Method: as §1, §2

E. faecium ATCC 700221 = assay: as above; type: cell-based, Enterococcus faecium; parameters: key to Act (antibacterial activity): Bc, bactericidal; Bs, bacteriostatic; details: for Act (antibacterial activity): MBC/MIC ratio >4 suggests bacteriostatic; for MIC: broth microdilution; for MIC / MBC: triplicate, mode; for MBC: subculture on CA-MH agar, 37 °C, 24 h
Method: as §1, §2

[2] = test system: K. pneumoniae ATCC 700603; assay: as above; type: cell-based, Klebsiella pneumoniae; parameters: key to Act (antibacterial activity): Bc, bactericidal; Bs, bacteriostatic; details: for Act (antibacterial activity): MBC/MIC ratio >4 suggests bacteriostatic; for MIC: broth microdilution; for MIC / MBC: triplicate, mode; for MBC: subculture on CA-MH agar, 37 °C, 24 h
Method: as §1, §2

A. baumannii ATCC 19606 = assay: as above; type: cell-based, Acinetobacter baumannii; parameters: key to Act (antibacterial activity): Bc, bactericidal; Bs, bacteriostatic; details: for Act (antibacterial activity): MBC/MIC ratio >4 suggests bacteriostatic; for MIC: broth microdilution; for MIC / MBC: triplicate, mode; for MBC: subculture on CA-MH agar, 37 °C, 24 h
Method: as §1, §2

P. aeruginosa ATCC 27853 = assay: as above; type: cell-based, Pseudomonas aeruginosa; parameters: key to Act (antibacterial activity): Bc, bactericidal; Bs, bacteriostatic; details: for Act (antibacterial activity): MBC/MIC ratio >4 suggests bacteriostatic; for MIC: broth microdilution; for MIC / MBC: triplicate, mode; for MBC: subculture on CA-MH agar, 37 °C, 24 h
Method: as §1, §2

[3] = Carboxyfluorescein leakage, vesicle permeabilization; details: 95% POPC / 5% POPG vesicles
Method: The permeabilization of lipid vesicles containing carboxyfluorescein was carried out using a spectrofluorometer model Fluorolog-3 FL3-122 from Horiba Jobin Yvon (Newark, NJ, USA) (dimers and tetramers) or in a spectrofluorometer model RF-1501 Shimadzu (Kyoto, Japan) (monomer). For RF-1501, the quantification of the fluorescence intensity was performed every 20 s. Two vesicle compositions were used: (1) 80% 1-palmitoyl-2-oleoyl-sn-glycero-3-phosphoethanolamine (POPE) and 20% 1-palmitoyl-2-oleoyl-sn-glycero- 3-phospho-(10-rac-glycerol) (POPG); and (2) 95% 1-palmitoyl-2-oleoyl-sn-glycero-3-phosphocholine (POPC) and 5% POPG. The percentage of leakage was obtained through the following equation:% release = (Fmeasured − Finitial)/(Ffinal − Finitial) × 100, where Ffinal is the average fluorescence value obtained after the addition of Triton, Finitial is the average of the initial values of the run before the addition of the peptide, and Fmeasured are the fluorescence values obtained at each point of the experiment.
Here, we evaluated two systems of membrane mimetics, including vesicles with a composition of 80% POPE and 20% POPG, and another with 95% POPC and 5% POPG. The first is widely used as a model of bacterial membranes, specifically of E. coli membrane. Membranes constituting POPC and POPG were used to mimic mammalian membranes due to the presence of choline-containing lipids in animal membranes.

SARS-CoV-2 PL^pro [4] = molecular target: T1, SARS-CoV-2 PL^pro (Severe acute respiratory syndrome coronavirus 2, UniProt P0DTD1); details: PL^pro from SARS-CoV-2, ref 19 (Freire et al., 2021), cited from earlier work; for Inhibition (%) at 10 µM: peptide 10 µM
T1 construct: made in house
Method: Table 3 PL^pro activity by peptide analogs of p-BThTX-I at the concentration of 10 μM and IC50 values. Representative concentration–response inhibition curves against PL^pro from SARS-CoV-2 are presented in the Supplementary Material (Figure S7). | column: Inhibition (%) at 10 µM; IC50 μM

SARS-CoV-2 = details: Vero cells; cited from earlier work
Source text: In December 2019, the first case of viral infection with a new coronavirus was reported in China, which was later named severe acute respiratory syndrome coronavirus 2 (SARS-CoV-2), and the disease caused by this was named coronavirus-2019 or COVID-19 by the WHO. This disease has taken on great proportions, causing a pandemic scenario and great global concern. Even with the improvements in disease control, there is still a need for new, specific antiviral therapeutic options. As antimicrobial peptides also have antiviral action, the L-dimer, D-dimer and L-tetramer, in addition to ...

SARS-CoV-2 PL^pro [5] = molecular target: T1, SARS-CoV-2 PL^pro; assay: PL^pro enzymatic inhibition assay; type: biochemical; details: PL^pro from SARS-CoV-2; for inhibition at 10 µM: peptide 10 µM; for IC50: two independent experiments

Row | Compound | MIC (S. aureus ATCC 25923) | MBC (S. aureus ATCC 25923) | Act (antibacterial activity) (E. coli ATCC 25922) | MIC (E. coli ATCC 25922) | MBC (E. coli ATCC 25922) | Act (antibacterial activity) (E. faecalis ATCC 29212) | MIC (E. faecalis ATCC 29212) | MBC (E. faecalis ATCC 29212) | Act (antibacterial activity) [1] | MIC [1] | MBC [1] | Act (antibacterial activity) (E. faecium ATCC 700221) | MIC (E. faecium ATCC 700221) | MBC (E. faecium ATCC 700221) | MIC [2] | MBC [2] | MIC (A. baumannii ATCC 19606) | MBC (A. baumannii ATCC 19606) | MIC (P. aeruginosa ATCC 27853) | MBC (P. aeruginosa ATCC 27853) | further results
1 | CC(C)C[C@@H](NC(=O)[C@@H](Cc1c[nH]cn1)NC(=O)[C@@H](Cc1ccc(O)cc1)NC(=O)[C@@H](CCCNC(=N)N)NC(=O)[C@@H](Cc1ccc(O)cc1)NC(=O)[C@@H](CCCCN)NC(=O)[C@H](N)CCCCN)C(=O)N[C@H](CCCCN)C(=O)N1CCC[C@@H]1C(=O)N[C@H](Cc1ccccc1)C(=O)NCCCC[C@H](NC(=O)[C@@H](Cc1ccccc1)NC(=O)[C@H]1CCCN1C(=O)[C@@H](CCCCN)NC(=O)[C@@H](CC(C)C)NC(=O)[C@@H](Cc1c[nH]cn1)NC(=O)[C@@H](Cc1ccc(O)cc1)NC(=O)[C@@H](CCCNC(=N)N)NC(=O)[C@@H](Cc1ccc(O)cc1)NC(=O)[C@@H](CCCCN)NC(=O)[C@H](N)CCCCN)C(N)=O [D-dimer] (I: H-[dK][dK][dY][dR][dY][dH][dL][dK][dP][dF]K-NH2 / II: H-[dK][dK][dY][dR][dY][dH][dL][dK][dP][dF]; amide I:11-II:C; N-terminus assumed) | 256 μg/mL and 89 µM | >512 µg/mL | Bc | 32 μg/mL and 11 µM | 32 µg/mL (≈ 11.2 µM) | Bc | 178 µM and 512 μg/mL | 512 µg/mL (≈ 178 µM) | Bc | 16 µg/mL | 16 µg/mL (≈ 5.58 µM) | Bs | 64 μg/mL and 22 µM | >256 µg/mL | 64 μg/mL and 22 µM | 128 µg/mL (≈ 44.6 µM) | 5 µM (≈ 14.3 µg/mL) | 64 µg/mL (≈ 22.3 µM) | 256 μg/mL and 89 µM | 512 µg/mL (≈ 178 µM) | Act (antibacterial activity) [2]: Bc; Act (antibacterial activity) (A. baumannii ATCC 19606): Bc; Act (antibacterial activity) (P. aeruginosa ATCC 27853): Bc; fluorescein leakage ([3]; concentration not stated in the sentence (10 and 50 µM tested)): 20%; CF leakage ([3]; peptide 50 µM): 20%; Inhibition (%) at 10 µM (SARS-CoV-2 PL^pro [4]): 96.35 ± 0.91%; percentage inhibition of SARS-CoV-2 infection (SARS-CoV-2): 69%
2 | CC(C)C[C@@H](NC(=O)[C@@H](Cc1c[nH]cn1)NC(=O)[C@@H](Cc1ccc(O)cc1)NC(=O)[C@@H](CCCNC(=N)N)NC(=O)[C@@H](Cc1ccc(O)cc1)NC(=O)[C@@H](CCCCN)NC(=O)[C@H](N)CCCCN)C(=O)N[C@H](CCCCN)C(=O)N1CCC[C@@H]1C(=O)N[C@H](Cc1ccccc1)C(N)=O [D-monomer] (H-[dK][dK][dY][dR][dY][dH][dL][dK][dP][dF]-NH2) | >371 µM | >512 µg/mL |  | 185 µM (≈ 255 µg/mL) | 256 µg/mL (≈ 186 µM) |  | >371 µM | >512 µg/mL |  | >371 µM | >512 µg/mL |  | >371 µM | >512 µg/mL | 371 µM (≈ 511 µg/mL) | 512 µg/mL (≈ 371 µM) | >371 µM | >512 µg/mL | >371 µM | >512 µg/mL | inhibition at 10 µM (SARS-CoV-2 PL^pro [5]): 85 ± 3%; IC50 (SARS-CoV-2 PL^pro [5]): 3 ± 1 µM
3 | CC(C)C[C@H](NC(=O)[C@H](Cc1c[nH]cn1)NC(=O)[C@H](Cc1ccc(O)cc1)NC(=O)[C@H](CCCNC(=N)N)NC(=O)[C@H](Cc1ccc(O)cc1)NC(=O)[C@H](CCCCN)NC(=O)[C@@H](N)CCCCN)C(=O)N[C@@H](CCCCN)C(=O)N1CCC[C@H]1C(=O)N[C@@H](Cc1ccccc1)C(N)=O [L-monomer] (H-KKYRYHLKPF-NH2) | >371 µM | >512 µg/mL |  | >371 µM | >512 µg/mL |  | >371 µM | >512 µg/mL |  | >371 µM | >512 µg/mL |  | >371 µM | >512 µg/mL | >371 µM | >512 µg/mL | >371 µM | >512 µg/mL |  | >512 µg/mL | inhibition at 10 µM (SARS-CoV-2 PL^pro [5]): 93.3%; IC50 (SARS-CoV-2 PL^pro [5]): 2.1 ± 0.1 µM
4 | I: KKYRYHLKPFKK-NH2 / II: KKYRYHLKPFK / III: KKYRYHLKPF / IV: KKYRYHLKPF (amide I:11-IV:C, I:12-II:C, II:11-III:C) [L-tetramer] | 64 μg/mL and 10 µM | 256 µg/mL | Bs | 32 μg/mL and 5 µM | >128 µg/mL | Bc | 10 µM and 64 μg/mL | 128 µg/mL | Bc | 16 µg/mL | 32 µg/mL | Bc |  | 32 µg/mL | 32 μg/mL and 5 µM | >128 µg/mL | 5 µM and 32 μg/mL | 64 µg/mL | 32 μg/mL and 5 µM | 64 µg/mL | Act (antibacterial activity) (S. aureus ATCC 25923; MBC/MIC ratio >4 suggests bacteriostatic): Bc; Act (antibacterial activity) [2]: Bs; Act (antibacterial activity) (A. baumannii ATCC 19606): Bc; Act (antibacterial activity) (P. aeruginosa ATCC 27853): Bc; Inhibition (%) at 10 µM (SARS-CoV-2 PL^pro [4]): 98.40 ± 0.00%; IC50 (SARS-CoV-2 PL^pro [4]): 1.4 ± 0.02 µM; percentage inhibition of SARS-CoV-2 infection (SARS-CoV-2): 54%
